From ChEMBL document CHEMBL1201862, “PubChem BioAssay data set” (2004)
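Interpolation was linear, between the two tested concentrations surrounding the appropriate level; five concentrations were tested over 48 hours in 96-well plates. Abbreviation: GI50, concentration required for 50% inhibition of growth.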 Activity calls are given as the source filed them. Rule as the data show it: active = GI50 up to about 1.1 µM and inactive = higher.

Legend:
Assay in all cases: inhibition of tumour cell growth, NCI panel, 48 h
SF-539 = system: SF-539
TK-10 = system: TK-10
U-251 = system: U-251
UACC-257 = system: UACC-257
SF-268 = system: SF-268
OVCAR-3 = system: OVCAR-3
A549 = system: A549
CCRF-CEM = system: CCRF-CEM
SF-295 = system: SF-295
IGROV-1 = system: IGROV-1
SNB-19 = system: SNB-19
EKVX = system: EKVX
LOX IMVI = system: LOX IMVI
HOP-62 = system: HOP-62
K562 = system: K562
DU-145 = system: DU-145
Hs-578T = system: Hs-578T
MCF7 = system: MCF7

Measured: GI50

O=[N+]([O-])c1cccc(/C=N\NS(=O)(=O)c2ccc(Cl)cc2)c1O
inactive: SF-539 54.2 µM | TK-10 > 100 µM | U-251 55.5 µM | UACC-257 > 100 µM | SF-268 > 100 µM | OVCAR-3 65.8 µM | A549 > 100 µM | CCRF-CEM 31.7 µM | SF-295 > 100 µM | IGROV-1 49.4 µM | SNB-19 > 100 µM | EKVX > 100 µM | LOX IMVI > 100 µM | HOP-62 > 100 µM | K562 60.1 µM

Clc1cc(Br)c2c3c(c(Br)cc(Cl)c13)C(Br)=C2Br
inactive: SF-539 19 µM | TK-10 21.8 µM | U-251 43.8 µM | UACC-257 > 100 µM | DU-145 28.4 µM | SF-268 22.5 µM | OVCAR-3 30.3 µM | A549 55.8 µM | SF-295 > 100 µM | IGROV-1 16.7 µM | Hs-578T 33.1 µM | SNB-19 > 100 µM | MCF7 34.8 µM | EKVX 28.6 µM | LOX IMVI 16.9 µM | HOP-62 64.3 µM | K562 29 µM

CCOCc1c(C)cc(C)c(C2C(C(=O)c3ccccc3)N3c4ccccc4C=CC3C2(C#N)C(=O)OCC)c1C (centres undefined)
inactive: U-251 85.7 µM | UACC-257 50.1 µM | DU-145 37.8 µM | SF-268 53.8 µM | OVCAR-3 17.4 µM | CCRF-CEM 56.4 µM | SF-295 53 µM | IGROV-1 10.6 µM | Hs-578T > 100 µM | SNB-19 > 100 µM | MCF7 24.8 µM | EKVX 16.1 µM | LOX IMVI 35.9 µM | K562 > 100 µM

O=c1[nH]n(Cc2ccccn2)c2ccc([N+](=O)[O-])cc12
inactive: SF-539 > 100 µM | TK-10 > 100 µM | U-251 > 100 µM | UACC-257 > 100 µM | DU-145 > 100 µM | SF-268 > 100 µM | OVCAR-3 > 100 µM | A549 > 100 µM | CCRF-CEM > 100 µM | IGROV-1 > 100 µM | Hs-578T > 100 µM | SNB-19 > 100 µM | EKVX > 100 µM | LOX IMVI > 100 µM | HOP-62 > 100 µM | K562 > 100 µM

Cc1nc2ccc(Cl)cc2c(-n2ccnc2)c1CCn1ccnc1
inactive: SF-539 61.4 µM | TK-10 30.2 µM | U-251 40.5 µM | UACC-257 18.8 µM | DU-145 31.9 µM | SF-268 30.2 µM | OVCAR-3 32.1 µM | A549 34.9 µM | CCRF-CEM 18 µM | SF-295 34.2 µM | IGROV-1 26.1 µM | Hs-578T 12.9 µM | SNB-19 53.7 µM | MCF7 32.3 µM | LOX IMVI 21 µM | HOP-62 33.3 µM | K562 23.2 µM

CC(=O)Nc1ccc(/C=C/C(=O)c2sc(-c3cccnc3)nc2C)cc1
inactive: SF-539 > 100 µM | TK-10 > 100 µM | U-251 > 100 µM | UACC-257 > 100 µM | SF-268 > 100 µM | OVCAR-3 > 100 µM | A549 > 100 µM | CCRF-CEM > 100 µM | SF-295 > 100 µM | IGROV-1 > 100 µM | EKVX > 100 µM | LOX IMVI > 100 µM | HOP-62 > 100 µM | K562 > 100 µM

Cc1ccc(S(=O)(=O)NC(=O)NCCc2c[nH]cn2)cc1
inactive: SF-539 > 100 µM | TK-10 > 100 µM | U-251 > 100 µM | DU-145 > 100 µM | SF-268 > 100 µM | OVCAR-3 > 100 µM | A549 > 100 µM | SF-295 > 100 µM | IGROV-1 > 100 µM | Hs-578T > 100 µM | SNB-19 > 100 µM | MCF7 > 100 µM | EKVX > 100 µM | LOX IMVI > 100 µM | HOP-62 > 100 µM | K562 > 100 µM
